Tests used:
[1] = Liver microsomes stability assay (human); assay type: in vitro ADME
Experimental: The liver microsome stability assay was carried as previously described (Refs. 40-41). NADPH regenerating agent solutions A and B and mouse liver microsomes (CD-1) were obtained from BD Gentest (Woburn, MA). Pooled human liver microsomes were purchased from XenoTech (Lenexa, KS). Ninety-six deep well plates were obtained from Midsci (St. Louis, MO). Ninety-six analytical plates were obtained from Corning Incorporated (Acton, MA). Sample preparation for microsomal stability was modified from Di's publications. A set of incubation times of 0, 15, 30, 60, 120, and 240 min were used. DMSO stock solutions of test compounds and verapamil (system control) were prepared at 10 mM concentration. Concentrated human or mouse liver microsomes (20 mg/mL protein concentration) and 0.5 M EDTA were diluted into 0.1 M potassium phosphate buffer (pH 7.4) and mixed well, followed by compounds solutions being spiked. This solution was mixed and 90 μL was transferred to 6 time points plates (each in triplicate wells). For the time 0 h plate, 3 fold (v:v) cold acetonitrile with internal standard (40 ng/ml warfarin) was added to each well, followed by addition of NADPH regenerating agent (mixing NADPH solutions A and B in PBS, pH7.4) and no incubation. […] The metabolic stability was evaluated via the half-life from least-squares fit of the multiple time points based on first-order kinetics.

[2] = Plasma protein binding assay (human); assay type: in vitro ADME
Experimental: (§1) Stock solutions were prepared at 10 mM in DMSO. Dulbecco's phosphate buffered saline (DPBS; pH 7.4) was obtained from Invitrogen (Carlsbad, CA). Single-Use RED (rapid equilibrium dialysis) device was obtained from Thermo scientific (Rockford, IL). Human and mouse plasma were obtained from GeneTex (Irvine, CA). Sample preparation for plasma protein binding was modified from Waters' method (see Waters, N.J., et al., J Pharm Sci. 2008 October; 97(10):4586-95). The Teflon base plate with the RED inserts was used without any pre-conditioning the membrane inserts. Plasma was thawed and centrifuged at 1000 rpm for 10 min to remove any particulates. Each compound was prepared at 10 μM in human or mouse plasma. Spiked plasma solutions (300 μL) were placed into the sample chamber (indicated by the red ring) and 500 μL of DPBS into the adjacent chamber. The plate was sealed and incubated at 37° C. on an orbital shaker (100 rpm) for 4 hours. After incubation, the seal was removed from the RED plate and the volume of the insert confirmed-little to no volume change occurred. […] The test compound concentrations were quantified in both buffer and plasma chambers via peak areas relative to the internal standard. The percentage of the test compound bound to plasma was calculated on following equations: % Free=(Concentration buffer chamber/concentration plasma chamber)×100% and % Bound=100%-% Free.

[3] = Plasma protein binding assay (mouse); assay type: in vitro ADME
Experimental: as §1

[4] = test system: CRBN knockout MV4-11 cells; experiment: Cell viability in CRBN knockout MV4-11 cells; assay type: cell-based, human; conditions: CRBN knockout vs wild-type MV4-11 cells
Experimental: MV-4-11 cell line was purchased from the American Type Culture Collection (ATCC, Manassas, VA). The cells were cultured according to recommendations in IMDM cell culture media (ATCC). Exponentially growing MV-4-11 cells were plated at 1,000 cells per well in Corning 8804BC white 384-well assay plates and incubated overnight at 37° C. in a humidified 5% CO2 incubator. Compounds were transferred to the assay plate from a dose-response plate using a Pintool on a Biomek FXP Laboratory Automation Workstation (Beckman Coulter). Cytotoxicity was determined following 72 hours of incubation using Promega Cell Titer Glo reagent according to the manufacturer's recommendation. Luminescence was measured on an Envision plate reader (Perkin-Elmer).
CRBN-deficient MV4:11 cells were generated using CRISPR-Cas9 technology. […] Five days post nucleofection, cells were single-cell sorted by FACs to enrich for GFP+(transfected) cells, clonally selected, and verified for the desired targeted modification via targeted deep sequencing using gene specific primers with partial Illumina adapter overhangs (hCRBN.F—5′-[sequence]-3′ (SEQID: 6) and hCRBN.R—5′-[sequence]-3′, (SEQID: 7); overhangs not shown) and analyzed using CRIS.py (Ref. 36).

caspase 3/7 = experiment: Caspase 3/7 activity assay; assay type: cell-based, human; conditions: MV4-11 cells, Caspase-Glo, 4, 8 and 24 hours, 10 and 100 nM
[5] = Pharmacokinetics (PK) study in CD1 mice; assay type: in vivo, mouse
Experimental: Healthy female CD1 mice (8-12 weeks old) weighing between 20 to 30 g were procured from Global, India. Three mice were housed in each cage. Temperature and humidity were maintained at 22±3° C. and 30-70%, respectively and illumination was controlled to give a sequence of 12 hr light and 12 hr dark cycle. Temperature and humidity were recorded by auto-controlled data logger system. All the animals were provided laboratory rodent diet (Envigo Research private Ltd, Hyderabad). Reverse osmosis water treated with ultraviolet light was provided ad libitum. Formulation vehicle: 5% v/v NMP: 5% v/v Solute HS-15 and 90% v/v normal saline. […] The dosing volume for intravenous was 5 mL/kg and for oral administration 10 mL/kg. Blood samples (approximately 60 μL) were collected under light isoflurane anesthesia (Surgivet®) from retro orbital plexus from a set of three mice at 0.08 (for IV only), 0.25, 0.5, 1, 2, 4, 6 (for PO only), 8, 12 and 24 hr. Immediately after blood collection, plasma was harvested by centrifugation at 4000 rpm, 10 min at […] and samples were stored at −70±10° C. until bioanalysis. […] Non-Compartmental-Analysis tool of Phoenix WinNonlin® (Version 8.0) was used to assess the pharmacokinetic parameters. Peak plasma concentration (Cmax) and time for the peak plasma concentration (Tmax) were the observed values. The areas under the concentration time curve (AUClast and AUCinf) were calculated by linear trapezoidal rule. The terminal elimination rate constant, ke was determined by regression analysis of the linear terminal portion of the log plasma concentration-time curve. Clearance was estimated as Dose/AUCinf and Vss as CL*MRT. The oral bioavailability was calculated as ratio of dose normalized AUC of oral and intravenous group multiplied by 100.

O=C1CCC(N2C(=O)c3ccc(NS(=O)(=O)c4ccccc4OC(F)(F)F)cc3C2=O)C(=O)N1 (stereo not shown) [Compound 1, N-(2-(2,6-dioxopiperidin-3-yl)-1,3-dioxoisoindolin-5-yl)-2-(trifluoromethoxy)benzenesulfonamide]
intrinsic clearance Clint [1]: 0.24 L/h/kg | liver microsomes t1/2 [1]: 5.7 h | Plasma protein binding [2]: 99.1% | Plasma protein binding [3]: 99.3% | antiproliferative activity in absence of CRBN [4]: abolished | caspase activation (caspase 3/7): measurable at 8 hours | clearance ([5]; 3 mg/kg IV): 0.0276 L/h/kg | volume of distribution ([5]; 3 mg/kg IV): 0.15 L/kg | oral bioavailability ([5]; 10 mg/kg PO vs 3 mg/kg IV): 84% | half-life ([5]; female, CD1, mouse, plasma, 3 mg/kg IV, read-out: terminal elimination half-life (t1/2) (converted)): 3.4 h
